Test results from US5565494A, “Antitumor compositions and methods of treatment” (Eli Lilly and Company, priority 1995, dated 1996).
Where “and” joins values, the source holds several entries; their conditions need not be identical. Identical values can stand only once.

Legend:
Type in all cases: in vivo
[1] = tested on: 6C3HED lymphosarcoma (Gardner lymphosarcoma, GLS); experiment: Antitumor activity in C3H mice bearing 6C3HED lymphosarcoma allograft, oral administration; conditions: for Percent Inhibition of tumor growth: tumor measured five days after treatment ended
From the text: A third tumor model employed C3H mice bearing the widely used allograft 6C3HED lymphosarcoma, also known as the Gardner lymphosarcoma (GLS). The 6C3HED lymphosarcoma was obtained from the Division of Cancer Treatment, National Cancer Institute, Tumor Bank, maintained at E.G. and G. Mason Research (Worcester, Mass.).
(§1) First passage tumors were stored in liquid nitrogen, using standard techniques. The transplanted tumor was reestablished from the Tumor Bank every six months or as needed. The tumor was maintained by serial passage twice weekly in the host mice.
(§2) In the procedures utilized here, the tumor was removed from passage animals and minced into 1- to 3-mm cubic fragments using sterile techniques. Tumor pieces were checked for sterility using both Antibiotic Medium 1 and Brain Heart Infusion (Difco, Detroit, Mich.). The xenograft tumor pieces were implanted into the recipient CD1 Nu/Nu mice subcutaneously in an axillary site by trochar. The allograft 6C3HED tumor pieces were implanted into the recipient C3H mice in an analogous fashion.
Drug therapy on the appropriate schedule was initiated seven days after tumor implantation. […] The total dosage volume for each administration was 0.5 ml. All animals were weighed at the beginning and end of administration of the subject compounds. Food and water were provided ad libitum.
(§3) Each control group and each dosage level of the treated groups consisted of 9 or 10 mice selected at random from the pool of implanted animals. The formulations were administered orally by gavage with the use of an 18-gauge needle. Compounds were dosed daily for 10 days for the studies using the human tumor xenografts and 8 days for the studies using the allograft.
The tumor was measured five days after treatment ended with two dimensional measurements (width and length) of the tumor taken using digital electronic calipers interfaced to a microcomputer. […] Tumor weights were calculated from these measurements using the following formula: [formula]

[2] = tested on: VRC5 human colon adenocarcinoma; experiment: Antitumor activity in mice bearing VRC5 human colon adenocarcinoma xenograft, oral administration; conditions: for Toxic/Total (mice which died relative to total in group): VRC5, oral gavage daily for 10 days; for Percent Inhibition of tumor growth: po
From the text: (§4) Two of the tumor models used for showing the anti-neoplastic activity of the sulfonylureas of this invention were the human colon xenografts, HXGC3 and VRC5. J. A. Houghton and D. M. Taylor, British Journal of Cancer, 37:213-223 (1978). These tumors were obtained from St. Jude's Children's Research Hospital and have been widely used as human tumor models.
as §1, §2
(§5) Drug therapy on the appropriate schedule was initiated seven days after tumor implantation. The compound being tested was mixed with 2.5% Emulphor EL620 from GAF Corporation (1:40 dilution in 0.9% saline). The total dosage volume for each administration was 0.5 ml. All animals were weighed at the beginning and end of administration of the subject compounds. Food and water were provided ad libitum.
as §3
(§6) The tumor was measured five days after treatment ended with two dimensional measurements (width and length) of the tumor taken using digital electronic calipers interfaced to a microcomputer. J. F. Worzalla, et Investigational New Drugs, 8:241-251 (1990). Tumor weights were calculated from these measurements using the following formula: [formula] At least one control group of an equal number of mice was treated with the same volume of 2.5% Emulphor only. The percent inhibition is determined by subtracting the ratio of the mean tumor size of the test group relative to the control group from one and multiplying the result by 100.
(§7) The results of several experiments in mice bearing the HXGC3 and VRC5 human colon adenocarcinomas and the 6C3HED lymphosarcoma when the Formula I compounds were administered orally are provided in Table I. In the table, Column 1 refers to the example number of the compound tested; Column 2 describes the particular human tumor xenograft or mouse allograft being studied; Column 3 gives the dosage level of the compound of Formula I in milligrams per kilogram of body weight; Column 4 describes the percent inhibition of tumor growth; and Column 5 tallies the number of mice which died during the course of the experiment relative to the total number of animals in the group.

[3] = tested on: HXGC3 human colon adenocarcinoma; experiment: Antitumor activity in mice bearing HXGC3 human colon adenocarcinoma xenograft, oral administration; conditions: for Toxic/Total (mice which died relative to total in group): HXGC3, oral gavage daily for 10 days; for Percent Inhibition of tumor growth: po
From the text: as §4, §1, §2, §5, §3, §6, §7

[4] = 6C3HED, 150 mg/kg, oral gavage daily for 8 days
[5] = 6C3HED, 300 mg/kg, oral gavage daily for 8 days
[6] = Mus musculus, 6C3HED, po, read-out: Percent Inhibition of tumor growth
[7] = 6C3HED, 600 mg/kg, oral gavage daily for 8 days

CCN(CC)c1ccc(S(=O)(=O)NC(=O)Nc2ccc(Cl)c(Cl)c2)cc1 [Example 12]
Toxic/Total (mice which died relative to total in group) [1, 4]: 0/10
Toxic/Total (mice which died relative to total in group) [1, 5]: 0/10
inhibition in vivo at 150 mg/kg [1, 6]: 54%
inhibition in vivo at 300 mg/kg [1, 6]: 70%

CN(C)c1ccc(S(=O)(=O)NC(=O)Nc2ccc(Cl)c(Cl)c2)cc1 [Example 2, N-[[(3,4-dichlorophenyl)amino]carbonyl]-4-(dimethylamino)benzenesulfonamide]
Toxic/Total (mice which died relative to total in group) ([2]; 150 mg/kg): 0/10
Toxic/Total (mice which died relative to total in group) ([2]; 300 mg/kg): 0/10
Toxic/Total (mice which died relative to total in group) ([2]; 600 mg/kg): 1/10
Toxic/Total (mice which died relative to total in group) ([2]; 1200 mg/kg): 0/10
Percent Inhibition of tumor growth ([2]; 150 mg/kg): 100%
Percent Inhibition of tumor growth ([2]; 300 mg/kg): 100%
Percent Inhibition of tumor growth ([2]; 600 mg/kg): 100%
Percent Inhibition of tumor growth ([2]; 1200 mg/kg): 100%
Toxic/Total (mice which died relative to total in group) ([3]; 150 mg/kg): 0/10
Toxic/Total (mice which died relative to total in group) ([3]; 300 mg/kg): 0/10
Toxic/Total (mice which died relative to total in group) ([3]; 600 mg/kg): 1/10
Toxic/Total (mice which died relative to total in group) ([3]; 1200 mg/kg): 1/10
Percent Inhibition of tumor growth ([3]; 150 mg/kg): 100%
Percent Inhibition of tumor growth ([3]; 300 mg/kg): 100%
Percent Inhibition of tumor growth ([3]; 600 mg/kg): 100%
Percent Inhibition of tumor growth ([3]; 1200 mg/kg): 100%
Toxic/Total (mice which died relative to total in group) ([1]; 6C3HED, 20 mg/kg, oral gavage daily for 8 days): 0/10
Toxic/Total (mice which died relative to total in group) ([1]; 6C3HED, 40 mg/kg, oral gavage daily for 8 days): 0/10
Toxic/Total (mice which died relative to total in group) ([1]; 6C3HED, 80 mg/kg, oral gavage daily for 8 days): 0/10
Toxic/Total (mice which died relative to total in group) ([1]; 6C3HED, 160 mg/kg, oral gavage daily for 8 days): 0/10
inhibition in vivo at 20 mg/kg [1, 6]: 35%
inhibition in vivo at 40 mg/kg [1, 6]: 51%
inhibition in vivo at 80 mg/kg [1, 6]: 89%
inhibition in vivo at 160 mg/kg [1, 6]: 97%

O=C(Nc1ccc(Cl)cc1)NS(=O)(=O)c1ccc(N2CCCC2)cc1 [Example 7, N-[[(4-chlorophenyl)amino]-carbonyl]-4-(1-pyrrolidinyl) benzenesulfonamide]
Toxic/Total (mice which died relative to total in group) [1, 4]: 0/10
Toxic/Total (mice which died relative to total in group) [1, 5]: 0/10
inhibition in vivo at 150 mg/kg [1, 6]: 44%
inhibition in vivo at 300 mg/kg [1, 6]: 48%

CNc1ccc(S(=O)(=O)NC(=O)Nc2ccc(Cl)c(Cl)c2)cc1 [Example 10]
inhibition in vivo at 300 mg/kg [1, 6]: 100%
inhibition in vivo at 600 mg/kg [1, 6]: 100%
Toxic/Total (mice which died relative to total in group) ([1]; mouse, in vivo): 2/10 and 0/10

CN(C)c1ccc(S(=O)(=O)NC(=O)Nc2ccc(Cl)cc2)cc1 [Example 1, N-[[(4-chlorophenyl)amino]carbonyl]-4-(dimethylamino)benzenesulfonamide]
Toxic/Total (mice which died relative to total in group) ([1]; 6C3HED, 37.5 mg/kg, oral gavage daily for 8 days): 0/10
Toxic/Total (mice which died relative to total in group) ([1]; 6C3HED, 75 mg/kg, oral gavage daily for 8 days): 0/10
Toxic/Total (mice which died relative to total in group) [1, 4]: 0/10
Toxic/Total (mice which died relative to total in group) [1, 5]: 0/10
Toxic/Total (mice which died relative to total in group) [1, 7]: 10/10
Percent Inhibition of tumor growth [1, 7]: Toxic
inhibition in vivo at 37.5 mg/kg [1, 6]: 80%
inhibition in vivo at 75 mg/kg [1, 6]: 99%
inhibition in vivo at 150 mg/kg [1, 6]: 100%
inhibition in vivo at 300 mg/kg [1, 6]: 100%

CNc1ccc(S(=O)(=O)NC(=O)Nc2ccc(Cl)cc2)cc1 [Example 9]
Toxic/Total (mice which died relative to total in group) [1, 5]: 0/10
Percent Inhibition of tumor growth [1, 5]: 100%
Toxic/Total (mice which died relative to total in group) [1, 7]: 0/10
Percent Inhibition of tumor growth [1, 7]: 100%

CC(C)Nc1ccc(S(=O)(=O)NC(=O)Nc2ccc(Cl)c(Cl)c2)cc1 [Example 11]
Toxic/Total (mice which died relative to total in group) [1, 4]: 0/10
Percent Inhibition of tumor growth [1, 4]: 71%
Toxic/Total (mice which died relative to total in group) [1, 5]: 1/10
Percent Inhibition of tumor growth [1, 5]: 96%

Nc1ccc(S(=O)(=O)NC(=O)Nc2ccc(Cl)c(Cl)c2)cc1 [Example 8, N-[[(3,4-dichlorophenyl)amino]-carbonyl]-4-(amino) benzenesulfonamide]
inhibition in vivo at 194 mg/kg [1, 6]: 34%
inhibition in vivo at 388 mg/kg [1, 6]: 29%
inhibition in vivo at 775 mg/kg [1, 6]: 100%
Toxic/Total (mice which died relative to total in group) ([1]; mouse, in vivo): 1/10 and 0/10

CCNc1ccc(S(=O)(=O)NC(=O)Nc2ccc(Cl)cc2)cc1 [Example 5, N-[[(4-chlorophenyl)amino]carbonyl]-4-(ethylamino)benzenesulfonamide]
Toxic/Total (mice which died relative to total in group) [1, 5]: 0/10
inhibition in vivo at 300 mg/kg [1, 6]: 74%

O=C(Nc1ccc(Cl)cc1)NS(=O)(=O)c1ccc(N2CCOCC2)cc1 [Example 6, N-[[(4-chlorophenyl)amino]-carbonyl]-4-(4-morpholinyl) benzenesulfonamide]
Toxic/Total (mice which died relative to total in group) [1, 4]: 0/10
Toxic/Total (mice which died relative to total in group) [1, 5]: 0/10
inhibition in vivo at 150 mg/kg [1, 6]: 17%
inhibition in vivo at 300 mg/kg [1, 6]: 38%

CN(C)c1cccc(S(=O)(=O)NC(=O)Nc2ccc(Cl)cc2)c1 [Example 4, N-[[(4-chlorophenyl)amino]carbonyl]-3-(dimethylamino)benzenesulfonamide]
Toxic/Total (mice which died relative to total in group) [1, 4]: 0/10
Toxic/Total (mice which died relative to total in group) [1, 5]: 0/10
inhibition in vivo at 150 mg/kg [1, 6]: 73%
inhibition in vivo at 300 mg/kg [1, 6]: 95%
